Laboratory results taken from patent publication US7138361B2, “Herbicidal heterocycles” (E. I. du Pont de Nemours and Company, priority 2000, dated 2006).

Experiments:
Format in all cases: in vivo
[1] = test system: Surinam grass (Brachiaria decumbens); assay: Test B postemergence; settings: 13 to 15 days
Summary of the method: (§1)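 Visual injury scores, 0 = no effect to 100 = complete control, assigned against controls after 13 to 15 days in the greenhouse. Compounds formulated in non-phytotoxic solvent plus surfactant and applied to soil after planting (pre) or onto foliage of 1- to 4-leaf plants (post).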

[2] = test system: barnyardgrass (Echinochloa crus-galli); assay: Test B postemergence; settings: 13 to 15 days
Summary of the method: as §1

[3] = test system: blackgrass (Alopecurus myosuroides); assay: Test B postemergence; settings: 13 to 15 days
Summary of the method: as §1

corn (Zea mays) [4] = assay: Test B postemergence; settings: 13 to 15 days
Summary of the method: as §1

[5] = test system: giant foxtail (Setaria faberii); assay: Test B postemergence; settings: 13 to 15 days
Summary of the method: as §1

[6] = test system: morning glory (Ipomoea hederacea); assay: Test B postemergence; settings: 13 to 15 days
Summary of the method: as §1

[7] = test system: pigweed (Amaranthus retroflexus); assay: Test B postemergence; settings: 13 to 15 days
Summary of the method: as §1

[8] = test system: velvetleaf (Abutilon theophrasti); assay: Test B postemergence; settings: 13 to 15 days
Summary of the method: as §1

[9] = test system: wheat (Triticum aestivum); assay: Test B postemergence; settings: 13 to 15 days
Summary of the method: as §1

[10] = test system: Surinam grass (Brachiaria decumbens); assay: Test B preemergence
Summary of the method: as §1

[11] = test system: barnyardgrass (Echinochloa crus-galli); assay: Test B preemergence
Summary of the method: as §1

[12] = test system: cocklebur (Xanthium strumarium); assay: Test B preemergence
Summary of the method: as §1

corn (Zea mays) [13] = assay: Test B preemergence
Summary of the method: as §1

[14] = test system: crabgrass (Digitaria sanguinalis); assay: Test B preemergence
Summary of the method: as §1

[15] = test system: giant foxtail (Setaria faberii); assay: Test B preemergence
Summary of the method: as §1

[16] = test system: lambsquarters (Chenopodium album); assay: Test B preemergence
Summary of the method: as §1

[17] = test system: morning glory (Ipomoea hederacea); assay: Test B preemergence
Summary of the method: as §1

[18] = test system: pigweed (Amaranthus retroflexus); assay: Test B preemergence
Summary of the method: as §1

rice (Oryza saliva) [19] = assay: Test B preemergence
Summary of the method: as §1

[20] = test system: velvetleaf (Abutilon theophrasti); assay: Test B preemergence
Summary of the method: as §1

[21] = test system: barnyardgrass (Echinochloa crus-galli); assay: Test C flooded paddy test; settings: for Barnyardgrass plant response rating: Flooded Paddy, scale 0 to 100, 0 no effect, 100 complete control
Summary of the method: (§2)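 Flooded paddy, 2-leaf stage at treatment. Readout: visual % control vs untreated, 0–100, at 12–14 d in greenhouse.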

[22] = test system: duck salad (Heteranthera limosa); assay: Test C flooded paddy test; settings: for Plant response rating, Ducksalad: flooded paddy test, scale 0 to 100 (0 no effect, 100 complete control)
Summary of the method: as §2

rice (Oryza saliva) [23] = assay: Test C flooded paddy test; settings: for Rice plant response rating: Flooded Paddy, scale 0 to 100, 0 no effect, 100 complete control; for Plant response rating, Rice: flooded paddy test, scale 0 to 100 (0 no effect, 100 complete control)
Summary of the method: as §2

[24] = test system: smallflower flatsedge (Cyperus difformis); assay: Test C flooded paddy test; settings: for Flatsedge plant response rating: Flooded Paddy, scale 0 to 100, 0 no effect, 100 complete control; for Plant response rating, Flatsedge: flooded paddy test, scale 0 to 100 (0 no effect, 100 complete control)
Summary of the method: as §2

Nightshade = assay: Test C preemergence; settings: Rate 500 g/ha, visual evaluation after 12 to 14 days
Sunflower = assay: Test C preemergence; settings: Rate 250 g/ha, scale 0 to 100, 0 no effect, 100 complete control
[25] = Rate 125 g/ha, scale 0 (no effect) to 100 (complete control)
[26] = Rate 500 g/ha, scale 0 to 100, 0 is no effect, 100 is complete control
[27] = Preemergence, Rate 500 g/ha, scale 0 to 100, 0 no effect, 100 complete control
[28] = preemergence, Rate 125 g/ha, scale of 0 to 100 where 0 is no effect and 100 is complete control, 13 to 15 days

With `CC(C)(C)c1ccn(C2CCN(c3ccc(F)c(Br)c3)C2=O)n1` (centres unmarked) [Compound 75] the “Plant response rating, Surinam grass” value [1, 25] was 0, the “Plant response rating, Surinam grass” value [1, 26] was 0 and the “Plant response rating, Barnyardgrass” value [2, 25] was 0. For the same compound, the “Plant response rating, Barnyardgrass” value [2, 26] was 0, the “Plant response rating, Blackgrass” value [3, 25] was 0 and the “Plant response rating, Blackgrass” value [3, 26] was 0. For the same compound, the “Plant response rating, Corn” value (corn (Zea mays) [4]; [25]) was 0, the “Plant response rating, Corn” value (corn (Zea mays) [4]; [26]) was 0 and the “Plant response rating, Foxtail, Giant” value [5, 25] was 0. The “Plant response rating, Foxtail, Giant” value [5, 26] was 0, the “Plant response rating, Morningglory” value [6, 25] was 20 and the “Plant response rating, Morningglory” value [6, 26] was 60. The “Plant response rating, Pigweed” value [7, 25] was 50, the “Plant response rating, Pigweed” value [7, 26] was 90 and the “Plant response rating, Velvetleaf” value [8, 25] was 0. The “Plant response rating, Velvetleaf” value [8, 26] was 50, the “Plant response rating, Wheat” value [9, 25] was 0 and the “Plant response rating, Wheat” value [9, 26] was 0. For the same compound, the “Plant response rating, Surinam grass” value [10, 27] was 100, the “Plant response rating, Surinam grass” value [10, 28] was 60 and the “Plant response rating, Barnyardgrass” value [11, 27] was 100. For the same compound, the “Plant response rating, Barnyardgrass” value [11, 28] was 100, the “Plant response rating, Cocklebur” value [12, 27] was 70 and the “Plant response rating, Cocklebur” value [12, 28] was 30. For the same compound, the “Plant response rating, Corn” value (corn (Zea mays) [13]; [27]) was 20, the “Plant response rating, Corn” value (corn (Zea mays) [13]; [28]) was 0 and the “Plant response rating, Crabgrass” value [14, 27] was 100. For the same compound, the “Plant response rating, Crabgrass” value [14, 28] was 100, the “Plant response rating, Foxtail, Giant” value [15, 27] was 100 and the “Plant response rating, Foxtail, Giant” value [15, 28] was 100. The “Plant response rating, Lambsquarters” value [16, 27] was 100, the “Plant response rating, Lambsquarters” value [16, 28] was 100 and the “Plant response rating, Morningglory” value [17, 27] was 0. For the same compound, the “Plant response rating, Morningglory” value [17, 28] was 0, the “Plant response rating, Pigweed” value [18, 27] was 100 and the “Plant response rating, Pigweed” value [18, 28] was 100. The “Plant response rating, Rice” value (rice (Oryza saliva) [19]; [27]) was 70, the “Plant response rating, Rice” value (rice (Oryza saliva) [19]; [28]) was 50 and the “Plant response rating, Velvetleaf” value [20, 27] was 70. For the same compound, the “Plant response rating, Velvetleaf” value [20, 28] was 50, the “Barnyardgrass plant response rating” value ([21]; Rate 250 g/ha) was 80 and the “Barnyardgrass plant response rating” value ([21]; Rate 500 g/ha) was 100. For the same compound, the “Plant response rating, Barnyardgrass” value ([21]; flooded paddy test, Rate 62 g/ha, scale 0 to 100 (0 no effect, 100 complete control)) was 70, the “Ducksalad plant response rating” value ([22]; Flooded Paddy, Rate 500 g/ha, scale 0 to 100, 0 no effect, 100 complete control) was 90 and the “Plant response rating, Ducksalad” value ([22]; Rate 62 g/ha) was 70. For the same compound, the “Plant response rating, Ducksalad” value ([22]; Rate 125 g/ha) was 80, the “Rice plant response rating” value (rice (Oryza saliva) [23]; Rate 250 g/ha) was 30 and the “Rice plant response rating” value (rice (Oryza saliva) [23]; Rate 500 g/ha) was 40. The “Plant response rating, Rice” value (rice (Oryza saliva) [23]; Rate 62 g/ha) was 0, the “Plant response rating, Rice” value (rice (Oryza saliva) [23]; Rate 125 g/ha) was 0 and the “Flatsedge plant response rating” value ([24]; Rate 250 g/ha) was 100. The “Flatsedge plant response rating” value ([24]; Rate 500 g/ha) was 100, the “Plant response rating, Flatsedge” value ([24]; Rate 62 g/ha) was 90 and the “Plant response rating, Flatsedge” value ([24]; Rate 125 g/ha) was 90. The “Plant response rating (0 to 100), Nightshade” value (Nightshade) was 50 and the “Plant response rating, Sunflower” value (Sunflower) was 0.
